Data taken from patent US12144785B2, “Composition of vitamin K and vitamin D for treating or preventing cardiovascular disease” (NATTOPHARMA AS, priority 2002, dated 2024).

Test system: thoracic aorta
Test: Aortic calcification in warfarin-treated rats: total calcium in thoracic aorta extract by atomic absorptiometry
Type: in vivo
Conditions: for Pre-formed calcium crystals / aortic calcification on high vitamin K diet: "high K": 6 weeks warfarin, then 6 weeks diet with 100 μg/g vitamin K, FIG. 6, means of K1 and K2 groups; for Difference between the outcomes for K1 and K2: high vitamin K diet after 6 weeks warfarin
Description: We performed and experiment using 48 rats. Each point in the various curves shown in FIGS. 3-6 is the mean of six rats, which were sacrificed. The thoracic aorta was dissected, homogenized, and precipitated calcium salts were dissolved in formic acid. The total calcium concentration in the extract was assessed by atomic absorptiometry, and is expressed as microgram calcium per gram of tissue.
Six of them were killed at baseline, six after 6 weeks, and the last six after 12 weeks. Apart from the cellular calcium, no accretion of calcium was observed during the test period. […] The protocol used involves the oral administration of a mixture of warfarin (3 mg/g of food) and vitamin K1 (1.5 mg/g of food) and is explained extensively in: H. M. H. Spronk et al, Tissue-specific utilization of menaquinone-4 results in the prevention of arterial calcification in warfarin-treated rats, Journal of Vascular Research 2003; 40:531-537. This treatment is designated as “low K”. Six rats were killed after 6 weeks of treatment, and another six after 12 weeks of treatment.
The other rats were first treated for six weeks with warfarin. One group of animals was subsequently fed the standard diet containing 5 μg vitamin K per g of food (indicated as “norm K”). […] Apparently, the presence of calcium precipitates is a sufficient trigger to continue further calcification (see FIG. 5) when using a normal diet.
Finally, we used two groups of six rats who had received the first 6-week treatment with warfarin, and a high vitamin K diet in the second 6-week period. One group received a diet containing […] of vitamin K1, the other one a diet containing 100 μg/g of vitamin K2 (menaquinone-4). Since there was no difference between the outcomes for K1 and K2, we present the means of both groups in FIG. 6 (designated as “high K”). […] This may be related to the relatively high dose used, and different efficacies may still be found from dose-response experiments. […] It may be expected that after prolonged treatment all calcified precipitates will dissolve by high vitamin K intake. The dose used for dissolving calcified precipitates in the aorta was 20 times the normal dose used (compared to the recommended allowance in humans). If extrapolated to humans the effective intake of vitamin K should thus be increased from 100 μg/day to 2 mg/day. Experiments in which lower doses are used will be initiated. However, it is likely that a similar effect will be observed at lower doses, even as low as 1-2 times the normal daily intake. This will depend upon factors such as vitamin K absorption since synthetic supplemented vitamin K is typically absorbed better (e.g. 10-20 fold) than nutritional vitamin K (e.g. which may be bound to chloroplasts in the food matrix).

Row | Compound | Calcium in the arterial wall ("low K": warfarin 3 mg/g food + vitamin K1 1.5 mg/g food, oral, 6 and 12 weeks, FIG. 4) | Pre-formed calcium crystals / aortic calcification on high vitamin K diet | Difference between the outcomes for K1 and K2 | Aortic calcification after change to the standard diet ("norm K": 6 weeks warfarin, then standard diet with 5 μg vitamin K per g of food, FIG. 5)
1 | CC(=O)CC(c1ccccc1)c1c(O)c2ccccc2oc1=O (stereo not drawn) [warfarin] | constant increase | – | – | –
2 | CC1=C(C/C=C(\C)CCC[C@H](C)CCC[C@H](C)CCCC(C)C)C(=O)c2ccccc2C1=O [vitamin K1, phylloquinone] | – | dissolved to a great deal | no difference | –
3 | CC(C)=CCC/C(C)=C/CC/C(C)=C/CC/C(C)=C/CC1=C(C)C(=O)c2ccccc2C1=O [vitamin K2, menaquinone-4] | – | dissolved to a great deal | no difference | –
4 | vitamin K | – | – | – | did not stop
